Values after ≈ are worked out from the molar mass of the structure shown. Values belong to the molecule of their own block, whether it stands above or below them.
Tests used:
[1] = molecular target: T1, Dihydropeptidase-1 (DHP-1) (Sus scrofa, UniProt P22412)
T1 sequence (P22412 17-384): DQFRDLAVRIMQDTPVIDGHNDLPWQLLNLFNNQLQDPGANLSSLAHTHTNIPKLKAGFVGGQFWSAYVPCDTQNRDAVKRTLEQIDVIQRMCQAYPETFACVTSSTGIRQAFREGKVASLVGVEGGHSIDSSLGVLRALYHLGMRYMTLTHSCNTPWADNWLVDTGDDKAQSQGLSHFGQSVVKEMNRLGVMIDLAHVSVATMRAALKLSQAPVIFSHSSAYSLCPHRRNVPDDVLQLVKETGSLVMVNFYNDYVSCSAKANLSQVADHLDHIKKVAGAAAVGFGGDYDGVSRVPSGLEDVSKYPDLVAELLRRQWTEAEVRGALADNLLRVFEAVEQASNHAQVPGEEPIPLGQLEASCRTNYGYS
Protocol: The rate of degradation of the inventive compounds by the action of DHP-1 enzyme extracted from hog kidney was determined as follow.
0.2 unit of the enzyme was allowed to react with the above solution at 30° C., and the absorbance at 299 nm of the remaining medicament was measured to determine the degradation rate. The absorbance was measured at 0, 0.5, 1, 2 and 4 hour points, and T1/2, the time when the concentration of the medicament become the half, was obtained by regression analysis.

[2] = tested on: Staphylococcus aureus 694E; experiment: Measurement of Minimum Inhibitory Concentration (MIC), MRSA; assay type: cell-based; details: Staphylococcus aureus
Protocol: (§1) The antibacterial activities of the compounds of the present invention prepared in the above Examples against Gram-positive and Gram-negative bacteria, MRSA and QRS were tested as follows.
(§2) Respective bacterial strains were inoculated into 3 ml of Fleisch extract broth (beef extract 1%, peptone 1%, NaCl 0.3%, Na2HPO4.12H2O 0.2%, pH 7.4-7.5. 10% horse serum was supplemented for Streptococcus pyogenes and S. facium) and cultured on a shaking incubator at 37° C. for 18 hours. About 10^4 CFU/spot of the cultured bacterial strains were inoculated onto Müller-Hinton agar plates containing serial double dilutions (final concentration of 0.002 to 100 μg/ml) of a test compound employing an automatic inoculator (Dynatech, USA), and incubated at 37° C. for 18 hours. When the incubation was completed, the minimum inhibitory concentration was determined. Meropenem (Yuhan corporation, Korea) and vancomycin (Cj Inco., Korea) were used as standard antibiotics, respectively.

[3] = tested on: Staphylococcus aureus 208E; experiment: as above; assay type: cell-based; details: Staphylococcus aureus
Protocol: as §1, §2

[4] = tested on: Staphylococcus aureus 121E; experiment: as above; assay type: cell-based; details: Staphylococcus aureus
Protocol: as §1, §2

[5] = tested on: Staphylococcus aureus 256E; experiment: as above; assay type: cell-based; details: Staphylococcus aureus
Protocol: as §1, §2

[6] = tested on: Staphylococcus aureus 88E; experiment: as above; assay type: cell-based; details: Staphylococcus aureus
Protocol: as §1, §2

[7] = tested on: Staphylococcus aureus 695E; experiment: as above; assay type: cell-based; details: Staphylococcus aureus
Protocol: as §1, §2

[8] = tested on: Staphylococcus aureus 690E; experiment: as above; assay type: cell-based; details: Staphylococcus aureus
Protocol: as §1, §2

[9] = tested on: Staphylococcus aureus 692E; experiment: as above; assay type: cell-based; details: Staphylococcus aureus
Protocol: as §1, §2

[10] = tested on: Staphylococcus aureus 697E; experiment: as above; assay type: cell-based; details: Staphylococcus aureus
Protocol: as §1, §2

[11] = tested on: Staphylococcus aureus 693E; experiment: as above; assay type: cell-based; details: Staphylococcus aureus
Protocol: as §1, §2

[12] = tested on: Staphylococcus epidermidis 178; experiment: Measurement of Minimum Inhibitory Concentration (MIC), QRS; assay type: cell-based; details: Staphylococcus epidermidis, 178
Protocol: as §1, §2

[13] = tested on: Staphylococcus aureus 293; experiment: as above; assay type: cell-based; details: Staphylococcus aureus, 293
Protocol: as §1, §2

[14] = tested on: Staphylococcus epidermidis 291; experiment: as above; assay type: cell-based; details: Staphylococcus epidermidis, 291
Protocol: as §1, §2

[15] = tested on: Staphylococcus aureus 179; experiment: as above; assay type: cell-based; details: Staphylococcus aureus, 179
Protocol: as §1, §2

[16] = tested on: Staphylococcus aureus 241; experiment: as above; assay type: cell-based; details: Staphylococcus aureus, 241
Protocol: as §1, §2

[17] = tested on: Klebsiella aerogenes 1522 E; experiment: Measurement of Minimum Inhibitory Concentration (MIC); assay type: cell-based
Protocol: as §1, §2

[18] = tested on: Enterobacter cloacae P 99; experiment: as above; assay type: cell-based
Protocol: as §1, §2

[19] = tested on: Escherichia coli DC 2; experiment: as above; assay type: cell-based
Protocol: as §1, §2

[20] = tested on: Staphylococcus pyogenes 77A; experiment: as above; assay type: cell-based; details: Staphylococcus aureus, 77A
Protocol: as §1, §2

[21] = tested on: Escherichia coli 1507 E; experiment: as above; assay type: cell-based
Protocol: as §1, §2

[22] = tested on: Escherichia coli DC 0; experiment: as above; assay type: cell-based
Protocol: as §1, §2

[23] = tested on: Enterobacter cloacae 1321 E; experiment: as above; assay type: cell-based
Protocol: as §1, §2

[24] = tested on: Staphylococcus faecium MD 8b; experiment: as above; assay type: cell-based; details: Staphylococcus, MD8B
Protocol: as §1, §2

[25] = tested on: Salmonella typhimurium 179; experiment: as above; assay type: cell-based; details: Salmonella enterica, TYPHIMURIUM
Protocol: as §1, §2

[26] = tested on: Staphylococcus aureus 285; experiment: as above; assay type: cell-based
Protocol: as §1, §2

[27] = tested on: Escherichia coli 078; experiment: as above; assay type: cell-based
Protocol: as §1, §2

[28] = tested on: Staphylococcus aureus 503; experiment: as above; assay type: cell-based
Protocol: as §1, §2

[29] = tested on: Staphylococcus pyogenes 308A; experiment: as above; assay type: cell-based; details: Staphylococcus aureus, 308A
Protocol: as §1, §2

[30] = tested on: Klebsiella oxytoca 1082 E; experiment: as above; assay type: cell-based
Protocol: as §1, §2

[31] = tested on: Escherichia coli TEM; experiment: as above; assay type: cell-based; details: Escherichia coli
Protocol: as §1, §2

Relative T1/2 [1]: 1.88
T1/2 (time when the concentration of the medicament become the half) [1]: 38.43
SMILES: C[C@H](c1ccccc1)N1CC(SC2=C(C(=O)[O-])N3C(=O)[C@H]([C@@H](C)O)[C@H]3[C@H]2C)C1.[K+] [Exam. 21, Potassium(1R,5S,6S)-2-{1-[(1R)-1-phenylethyl]-azetidine-3-yl-thio}-6-[(1R)-1-hydroxylethyl]-1-methylcarbapen-2-em-3-carboxylate]

Relative T1/2 [1]: 1.08
T1/2 (time when the concentration of the medicament become the half) [1]: 19.71
SMILES: CC(c1ccc(Br)cc1)N1CC(SC2=C(C(=O)[O-])N3C(=O)[C@H]([C@@H](C)O)[C@H]3[C@H]2C)C1.[K+] (stereo partly drawn) [Exam. 24, Potassium(1R,5S,6S)-2-{1-[1-(4-bromophenyl)ethyl]-azetidine-3-yl-thio}-6-[(1R)-1-hydroxylethyl]-1-methylcarbapen-2-em-3-carboxylate]

The next lines start with the molecule.

SMILES: C[C@@H](O)[C@H]1C(=O)N2C(C(=O)[O-])=C(SC3CN(Cc4cccc(C(F)(F)F)c4)C3)[C@H](C)[C@H]12.[K+] [Exam. 20, Potassium(1R,5S,6S)-2-[1-(3-trifluoromethylbenzyl)-azetidine-3-yl-thio]-6-[(1R)-1-hydroxylethyl]-1-methylcarbapen-2-em-3-carboxylate]
Relative T1/2 [1]: 0.88
T1/2 (time when the concentration of the medicament become the half) [1]: 16.03

SMILES: Cc1ccc(CN2CC(SC3=C(C(=O)[O-])N4C(=O)[C@H]([C@@H](C)O)[C@H]4[C@H]3C)C2)cc1.[K+] [Exam. 23, Potassium(1R,5S,6S)-2-[1-(4-methylbenzyl)-azetidine-3-yl-thio]-6-[(1R)-1-hydroxylethyl]-1-methylcarbapen-2-em-3-carboxylate]
Relative T1/2 [1]: 1.38
T1/2 (time when the concentration of the medicament become the half) [1]: 25.24

SMILES: CN[C@H](CC(C)C)C(=O)N[C@H]1C(=O)N[C@@H](CC(N)=O)C(=O)N[C@H]2C(=O)N[C@H]3C(=O)N[C@H](C(=O)N[C@H](C(=O)O)c4cc(O)cc(O)c4-c4cc3ccc4O)[C@H](O)c3ccc(c(Cl)c3)Oc3cc2cc(c3O[C@@H]2O[C@H](CO)[C@@H](O)[C@H](O)[C@H]2O[C@H]2C[C@](C)(N)[C@H](O)[C@H](C)O2)Oc2ccc(cc2Cl)[C@H]1O [Vancomycin, vancomycin, reference compound]
MIC [2]: 1.56 µg/mL (≈ 1.08 µM)
MIC [3]: 0.781 µg/mL (≈ 0.539 µM)
MIC [4]: 0.781 µg/mL (≈ 0.539 µM)
MIC [5]: 0.781 µg/mL (≈ 0.539 µM)
MIC [6]: 0.781 µg/mL (≈ 0.539 µM)
MIC [7]: 1.56 µg/mL (≈ 1.08 µM)
MIC [8]: 0.391 µg/mL (≈ 0.27 µM)
MIC [9]: 0.781 µg/mL (≈ 0.539 µM)
MIC [10]: 0.781 µg/mL (≈ 0.539 µM)
MIC [11]: 1.56 µg/mL (≈ 1.08 µM)
MIC [12]: 1.56 µg/mL (≈ 1.08 µM)
MIC [13]: 0.781 µg/mL (≈ 0.539 µM)
MIC [14]: 1.56 µg/mL (≈ 1.08 µM)
MIC [15]: 0.781 µg/mL (≈ 0.539 µM)
MIC [16]: 0.781 µg/mL (≈ 0.539 µM)
MIC [17]: 100 µg/mL (≈ 69 µM)
MIC [18]: 100 µg/mL (≈ 69 µM)
MIC [19]: 50 µg/mL (≈ 34.5 µM)
MIC [20]: 0.391 µg/mL (≈ 0.27 µM)
MIC [21]: 100 µg/mL (≈ 69 µM)
MIC [22]: 100 µg/mL (≈ 69 µM)
MIC [23]: 100 µg/mL (≈ 69 µM)
MIC [24]: 0.391 µg/mL (≈ 0.27 µM)
MIC [25]: 100 µg/mL (≈ 69 µM)
MIC [26]: 0.391 µg/mL (≈ 0.27 µM)
MIC [27]: 100 µg/mL (≈ 69 µM)
MIC [28]: 0.391 µg/mL (≈ 0.27 µM)
MIC [29]: 0.781 µg/mL (≈ 0.539 µM)
MIC [30]: 100 µg/mL (≈ 69 µM)
MIC [31]: 100 µg/mL (≈ 69 µM)

Reference: patent US7662810B2, “2-arylmethylazetidine carbapenem derivatives and preparation thereof” (Korea Research Institute of Chemical Technology, priority 2004, dated 2010)
